Legend:
CYP2D6 = target: T1, CYP2D6 (Homo sapiens, UniProt P10635); experiment: CYP inhibition assay, human liver microsomes, dextromethorphan; type: in vitro ADME; details: read-out: CYP IC50 2D6
T1 construct: 0.2 mg/ml pooled human liver microsomes; from tissue; host or cells: pooled human liver microsomes
Protocol: (§1) Inhibition of cytochromes P450 (CYPs) 2C9, 2D6 and 3A4 was assessed using human liver microsomes and CYP-selective substrate metabolism reactions. 50 μl incubations were made up containing (finally) 0.2 mg/ml pooled human liver microsomes, 5 μM substrate (diclofenac for CYP2C9 [4′hydroxylase], dextromethorphan for CYP2D6 [O-demethylase] or midazolam for CYP3A4 [1′hydroxylase]), 0.25 μL DMSO containing test inhibitor and NADPH regenerating system. Test inhibitor concentrations of 50, 16.7, 5.6, 1.9, 0.6 and 0.2 μM were assessed in singlicate. Incubations were prewarmed to 37° C. for 10 minutes before initiation by addition of NADPH regenerating system. Incubations were quenched after 5 minutes (20 minutes for dextromethorphan) by addition of 50 μl cold acetonitrile containing 20 ng/ml 4-OH-diclofenac-13C6, 20 ng/mL dextrorphan-D3 and 20 ng/mL 1-OH-midazolam-D4. Quenched incubates were stored at −20° C. for at least 1 hour before centrifugation (20,000×g, 20 minutes). Supernatants were removed and diluted 1:1 with water prior to analysis using a RapidFire sample injector system and API4000 mass spectrometer. Peak areas for substrate, metabolite and stable-labelled metabolite standard were determined using MS/MS. The peak area ratios between the metabolite generated by the enzymatic reaction and the internal standard were used in subsequent calculations. The percentage of (DMSO) control activity was calculated for each incubate and IC50 values estimated by non-linear regression. Sulfaphenazole, quinidine or ketoconazole were tested in each CYP2C9, CYP2D6 or CYP3A4 inhibition experiment, respectively, to ensure assay sensitivity and reproducibility. (Validated assays for human cytochrome P450 activities^11)

[1] = target: T2, recombinant human cathepsin E (Homo sapiens, UniProt P14091); experiment: Cathepsin E fluorescent substrate kinetic assay; type: biochemical; details: pH 4.5
T2 construct: purchased R&D Systems
T2 sequence (P14091 54-396): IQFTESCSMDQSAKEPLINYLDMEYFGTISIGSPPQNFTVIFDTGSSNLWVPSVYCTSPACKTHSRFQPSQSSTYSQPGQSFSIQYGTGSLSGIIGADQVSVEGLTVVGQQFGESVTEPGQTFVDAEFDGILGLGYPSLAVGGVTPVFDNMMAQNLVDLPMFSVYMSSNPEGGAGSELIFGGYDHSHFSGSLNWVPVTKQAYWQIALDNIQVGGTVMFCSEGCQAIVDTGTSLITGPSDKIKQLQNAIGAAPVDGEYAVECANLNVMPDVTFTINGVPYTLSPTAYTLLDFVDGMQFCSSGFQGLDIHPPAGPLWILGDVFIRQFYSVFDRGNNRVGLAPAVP
From the text: (§2) The MR121 fluorescence assays described below are based on the fact that MR121 forms a non-fluorescent ground state complex with tryptophan. In solution this formation occurs at millimolar concentrations of tryptophan. The mechanism can be used to design a generic biochemical assay for proteases. A substrate peptide is labeled at the N-terminus with tryptophan and at the C-terminus with the fluorophore MR121 (for cathepsin D the 10 amino acid peptide WTSVLMAAPC-MR121 was used; for cathepsin E, MR121-CKLVFFAEDW was used). In absence of protease activity, the substrates remain intact and the MR121 fluorescence is reduced by the high local Trp-concentration. If the substrates are cleaved by the enzymes the MR121 fluorescence is recovered.
(§3) The fluorescent substrate cathepsin D and cathepsin E kinetic assays were performed at room temperature in 384-well microtiter plates (black with clear flat bottom, non binding surface plates from Corning) in a final volume of 51 μl. The test compounds were serially diluted in DMSO (15 concentrations, 1/3 dilution steps) and 1 μl of diluted compounds were mixed for 10 min with 40 μl of cathepsin D (from human liver, Calbiochem) diluted in assay buffer (100 mM sodium acetate, 0.05% BSA, pH 5.5; final concentration: 200 nM) or with 40 μl of recombinant human cathepsin E (R&D Systems) diluted in assay buffer (100 mM sodium acetate, 0.05% BSA, pH 4.5; final concentration: 0.01 nM). After addition of 10 μl of the cathepsin D substrate WTSVLMAAPC-MR121 diluted in cathepsin D assay buffer (final concentration: 300 nM) or […] cathepsin E substrate MR121-CKLVFFAEDW diluted in cathepsin E assay buffer (final concentration: 300 nM), the plates were strongly shaken for 2 minutes. The enzymatic reaction was followed in a plate: vision reader (Perkin Elmer) (excitation wavelength: 630 nm; emission: 695 nm) for at least 30 minutes in a kinetic measurement detecting an increase of MR121 fluorescence during the reaction time. The slope in the linear range of the kinetic was calculated and the IC50 of the test compounds were determined using a four parameter equation for curve fitting.

CYP2C9 = target: T3, CYP2C9 (Homo sapiens, UniProt P11712); experiment: CYP inhibition assay, human liver microsomes, diclofenac; type: in vitro ADME; details: read-out: CYP IC50 2C9
T3 construct: 0.2 mg/ml pooled human liver microsomes; from tissue; host or cells: pooled human liver microsomes
Protocol: as §1

[2] = target: T4, cathepsin D (from human liver) (Homo sapiens, UniProt P07339); experiment: Cathepsin D fluorescent substrate kinetic assay; type: biochemical; details: pH 5.5
T4 construct: cathepsin D (from human liver, Calbiochem); purchased Calbiochem; host or cells: human liver (tissue-purified)
From the text: as §2, §3

BACE1 = target: T5, BACE1 (Homo sapiens, UniProt P56817); experiment: Cellular Aβ-lowering assay (Aβ40 ELISA, HEK293 cells expressing human APP695); type: cell-based; details: HEK293 cells stably expressing human APP695; Aβ40 in supernatant after 18-20 hrs; read-out: BACE1 cell act. Aβ40 IC50
T5 construct: Human HEK293 cells which are stably transfected with a vector expressing a cDNA of the human APP wt gene (APP695); endogenous in cells; host or cells: HEK293 stably expressing human APP695 wt
Protocol: Human HEK293 cells which are stably transfected with a vector expressing a cDNA of the human APP wt gene (APP695) were used to assess the potency of the compounds in a cellular assay. The cells were seeded in 96-well microtiter plates in cell culture medium (Iscove, plus 10% (v/v) fetal bovine serum, glutamine, penicillin/streptomycin) to about 80% confluence and the compounds were added at a 10× concentration in 1/10 volume of medium without FCS containing 8% DMSO (final concentration of DMSO was kept at 0.8% v/v). After 18-20 hrs incubation at 37° C. and 5% CO2 in a humidified incubator the culture supernatant was harvested for the determination of Aβ40 concentrations. 96 well ELISA plates (e.g., Nunc MaxiSorb) were coated with monoclonal antibody which specifically recognize the C-terminal end of Aβ40^10. After blocking of non-specific binding sites with e.g. 1% BSA and washing, the culture supernatants were added in suitable dilutions together with a horseradish peroxidase-coupled Aβ detection antibody (e.g., antibody 4G8, Senetek, Maryland Heights, Mo.) and incubated for 5 to 7 hrs. Subsequently the wells of the microtiter plate were washed extensively with Tris-buffered saline containing 0.05% Tween 20 and the assay was developed with tetramethylbenzidine/H2O2 in citric acid buffer. After stopping the reaction with one volume 1 N H2SO4 the reaction was measured in an ELISA reader at 450 nm wavelength. The concentrations of Aβ in the culture supernatants were calculated from a standard curve obtained with known amounts of pure Aβ peptide.

CYP3A4 = target: T6, CYP3A4 (Homo sapiens, UniProt P08684); experiment: CYP inhibition assay, human liver microsomes, midazolam; type: in vitro ADME; details: read-out: CYP IC50 3A4
T6 construct: 0.2 mg/ml pooled human liver microsomes; from tissue; host or cells: pooled human liver microsomes
Protocol: as §1

T5 sequence (P56817 46-501): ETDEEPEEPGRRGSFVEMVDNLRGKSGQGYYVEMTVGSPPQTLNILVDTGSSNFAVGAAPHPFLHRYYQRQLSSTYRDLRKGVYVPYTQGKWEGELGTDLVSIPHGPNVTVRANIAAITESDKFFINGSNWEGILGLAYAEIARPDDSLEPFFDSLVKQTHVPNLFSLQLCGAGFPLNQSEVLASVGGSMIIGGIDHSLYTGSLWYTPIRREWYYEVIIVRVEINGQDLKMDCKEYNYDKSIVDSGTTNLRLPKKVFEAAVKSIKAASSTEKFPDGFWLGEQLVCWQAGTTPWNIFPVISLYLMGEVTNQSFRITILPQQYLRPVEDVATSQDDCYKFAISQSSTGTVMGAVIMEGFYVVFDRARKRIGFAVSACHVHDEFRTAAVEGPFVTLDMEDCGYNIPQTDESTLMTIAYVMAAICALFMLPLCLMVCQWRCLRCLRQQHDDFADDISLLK
T4 sequence (P07339 65-162 limits assumed): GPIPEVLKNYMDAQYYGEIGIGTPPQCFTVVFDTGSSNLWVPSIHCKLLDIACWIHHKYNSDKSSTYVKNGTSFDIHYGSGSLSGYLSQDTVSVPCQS
T4 sequence (P07339 169-412 limits assumed): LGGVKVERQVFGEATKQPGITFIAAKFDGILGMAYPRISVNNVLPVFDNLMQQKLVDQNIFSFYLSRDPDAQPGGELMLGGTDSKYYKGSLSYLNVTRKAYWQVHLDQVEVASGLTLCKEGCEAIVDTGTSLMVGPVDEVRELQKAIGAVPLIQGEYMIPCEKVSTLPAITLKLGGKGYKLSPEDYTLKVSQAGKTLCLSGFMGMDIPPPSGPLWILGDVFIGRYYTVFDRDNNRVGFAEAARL
T3 sequence (P11712 whole entry): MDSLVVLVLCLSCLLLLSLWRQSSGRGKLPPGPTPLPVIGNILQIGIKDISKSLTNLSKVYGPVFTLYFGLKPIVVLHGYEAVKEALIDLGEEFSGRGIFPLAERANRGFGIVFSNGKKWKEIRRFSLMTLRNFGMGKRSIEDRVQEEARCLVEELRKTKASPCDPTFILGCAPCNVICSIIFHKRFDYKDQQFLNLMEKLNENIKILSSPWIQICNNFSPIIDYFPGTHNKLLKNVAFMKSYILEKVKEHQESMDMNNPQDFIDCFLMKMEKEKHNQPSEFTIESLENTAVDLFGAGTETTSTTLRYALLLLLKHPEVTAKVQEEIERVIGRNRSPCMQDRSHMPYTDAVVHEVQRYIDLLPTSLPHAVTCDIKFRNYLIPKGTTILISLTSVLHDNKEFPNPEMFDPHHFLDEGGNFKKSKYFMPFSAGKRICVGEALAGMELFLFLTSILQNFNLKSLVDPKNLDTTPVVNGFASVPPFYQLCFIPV
T1 sequence (P10635 whole entry): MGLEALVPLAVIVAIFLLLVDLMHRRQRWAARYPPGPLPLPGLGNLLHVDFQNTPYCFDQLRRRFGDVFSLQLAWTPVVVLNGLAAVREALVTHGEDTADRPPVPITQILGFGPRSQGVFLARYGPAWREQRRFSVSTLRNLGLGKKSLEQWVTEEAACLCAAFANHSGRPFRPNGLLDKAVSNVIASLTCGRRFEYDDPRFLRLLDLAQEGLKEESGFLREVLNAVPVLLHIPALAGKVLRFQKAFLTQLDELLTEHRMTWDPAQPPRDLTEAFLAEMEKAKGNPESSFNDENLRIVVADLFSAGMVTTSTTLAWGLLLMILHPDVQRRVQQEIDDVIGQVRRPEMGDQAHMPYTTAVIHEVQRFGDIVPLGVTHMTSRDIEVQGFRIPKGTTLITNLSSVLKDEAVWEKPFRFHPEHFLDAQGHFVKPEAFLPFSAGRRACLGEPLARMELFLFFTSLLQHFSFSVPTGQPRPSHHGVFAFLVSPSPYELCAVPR
T6 sequence (P08684 whole entry): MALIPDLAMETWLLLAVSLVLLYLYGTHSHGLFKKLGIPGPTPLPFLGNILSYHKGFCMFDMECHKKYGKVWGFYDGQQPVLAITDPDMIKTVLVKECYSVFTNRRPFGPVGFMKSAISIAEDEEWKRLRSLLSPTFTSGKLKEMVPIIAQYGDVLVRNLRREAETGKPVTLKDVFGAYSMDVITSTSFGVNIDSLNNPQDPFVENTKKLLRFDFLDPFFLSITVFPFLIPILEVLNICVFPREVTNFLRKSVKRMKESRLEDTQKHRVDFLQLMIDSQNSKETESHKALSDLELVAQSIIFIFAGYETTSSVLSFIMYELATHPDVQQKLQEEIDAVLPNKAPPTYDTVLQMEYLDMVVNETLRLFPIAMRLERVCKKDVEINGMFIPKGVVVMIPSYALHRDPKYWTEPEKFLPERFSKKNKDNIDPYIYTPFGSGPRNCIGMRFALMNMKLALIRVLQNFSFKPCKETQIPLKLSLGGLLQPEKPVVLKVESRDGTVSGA

Compound | IC50 (CYP2D6) | IC50 [1] | IC50 (CYP2C9) | IC50 [2] | IC50 (BACE1) | IC50 (CYP3A4)
C[C@]1(c2cc(NC(=O)c3ccc(Cl)s3)ccc2F)N=C(N)O[C@@H]2CCCC(F)(F)[C@@H]21 [Example 9, 5-Chloro-thiophene-2-carboxylic acid [3-((4S,4aR,8aR)-2-amino-5,5-difluoro-4-methyl-4a,5,6,7,8,8a-hexahydro-4H-benzo[e][1,3]oxazin-4-yl)-4-fluoro-phenyl]-amide] | 1000 to 10000 nM | > 200000 nM | 1000 to 10000 nM | 105000 nM | 350 nM | > 10000 nM
C[C@]1(c2cc(NC(=O)c3cnc(CF)cn3)ccc2F)N=C(N)O[C@@H]2CCC(F)(F)[C@@H]21 [Example 5, 5-Fluoromethyl-pyrazine-2-carboxylic acid [3-((4S,4aR,7aR)-2-amino-5,5-difluoro-4-methyl-4,4a,5,6,7,7a-hexahydro-cyclopenta[e][1,3]oxazin-4-yl)-4-fluoro-phenyl]-amide] | – | – | – | – | 5.1 nM | –
C[C@]1(c2cc(NC(=O)c3cnc(C#N)cn3)ccc2F)N=C(N)O[C@@H]2CCC(F)(F)[C@@H]21 [Example 6, 5-Cyano-pyrazine-2-carboxylic acid [3-((4S,4aR,7aR)-2-amino-5,5-difluoro-4-methyl-4,4a,5,6,7,7a-hexahydro-cyclopenta[e][1,3]oxazin-4-yl)-4-fluoro-phenyl]-amide] | – | – | – | – | 5.5 nM | –
CC(F)(F)c1cnc(C(=O)Nc2ccc(F)c([C@@]3(C)N=C(N)O[C@@H]4CCC(F)(F)[C@@H]43)c2)cn1 [Example 4, 5-(1,1-Difluoro-ethyl)-pyrazine-2-carboxylic acid [3-((4S,4aR,7aR)-2-amino-5,5-difluoro-4-methyl-4,4a,5,6,7,7a-hexahydro-cyclopenta[e][1,3]oxazin-4-yl)-4-fluoro-phenyl]-amide] | – | > 200000 nM | – | 183000 nM | 8.9 nM | –
C[C@]1(c2cc(NC(=O)c3ccc(Cl)cn3)ccc2F)N=C(N)O[C@@H]2CCC(F)(F)[C@@H]21 [Example 3] | – | – | – | – | 1.9 nM | –
C[C@]1(c2cc(NC(=O)c3ccc(Cl)cn3)ccc2F)N=C(N)O[C@@H]2CCCC(F)(F)[C@@H]21 [Example 7, 5-Chloro-pyridine-2-carboxylic acid [3-((4S,4aR,8aR)-2-amino-5,5-difluoro-4-methyl-4a,5,6,7,8,8a-hexahydro-4H-benzo[e][1,3]oxazin-4-yl)-4-fluoro-phenyl]-amide] | – | – | – | – | 4.9 nM | –
